# Reference: patent US12459922B2 (Gilead Sciences, Inc., priority 2022, dated 2025)
# Tested on: endogenous cellular STAT1 (phosphorylated at Tyr701) in NCI-H1373 cells
# Assay: Phospho-STAT1 (Tyr701) LANCE Ultra TR-FRET Detection Assay
# Assay type: cell-based
# Details: 48 hours, phospho-STAT1 (Tyr701) induction, read-out: NH1373 pSTAT1 EC50
row,EC50 [nM],SMILES
1,4.35,Cc1cnc(-c2cc3ccn(C[C@@H]4CCC[C@H](Nc5cn[nH]c(=O)c5C(F)(F)F)C4)c(=O)c3cc2F)nc1 [Example 240]
2,9.44,Cc1cnc(-c2cc3ccn(C[C@@H]4CCC[C@H](Nc5cn[nH]c(=O)c5C(F)(F)F)C4)c(=O)c3cc2F)nc1 [Example 242]

# Same assay, conditions: Homo sapiens, NCI-H1373, 48 h, phospho-STAT1 (Tyr701) induction, read-out: NH1373 pSTAT1 EC50
row,EC50 [nM],SMILES
1,5.92,"Nc1nc(-c2cc3ccn(C[C@@H]4CCC[C@H](Nc5cn[nH]c(=O)c5C(F)(F)F)C4)c(=O)c3cc2F)ncc1C(F)F [Example 231, 6-(4-amino-5-(difluoromethyl)pyrimidin-2-yl)-7-fluoro-2-(((1R,3S)-3-((6-oxo-5-(trifluoromethyl)-1,6-dihydropyridazin-4-yl)amino)cyclohexyl)methyl)isoquinolin-1(2H)-one]"
2,1.67,"O=c1[nH]ncc(N[C@H]2CCC[C@@H](Cn3ccc4cc(-c5ncc(C(F)(F)F)cn5)c(F)c(F)c4c3=O)C2)c1C(F)(F)F [Example 232, 7,8-difluoro-2-(((1R,3S)-3-((6-oxo-5-(trifluoromethyl)-1,6-dihydropyridazin-4-yl)amino)cyclohexyl)methyl)-6-(5-(trifluoromethyl)pyrimidin-2-yl)isoquinolin-1(2H)-one]"
3,1.95,O=c1[nH]ncc(N[C@H]2CCC[C@@H](Cn3ccc4cc(-c5ncc(C(F)F)cn5)c(F)c(F)c4c3=O)C2)c1C(F)(F)F [Example 233]
4,1.55,Nc1nc(-c2cc3ccn(C[C@@H]4CCC[C@H](Nc5cn[nH]c(=O)c5C(F)(F)F)C4)c(=O)c3c(F)c2F)ncc1C(F)(F)F [Example 234]
5,4.38,O=c1[nH]ncc(N[C@H]2CCC[C@@H](Cn3cnc4cc(-c5ncc(C(F)(F)F)cn5)c(F)cc4c3=O)C2)c1C(F)(F)F [Example 235]
6,32.2,Nc1nc(-c2cc3ncn(C[C@@H]4CCC[C@H](Nc5cn[nH]c(=O)c5C(F)(F)F)C4)c(=O)c3cc2F)ncc1C(F)F [Example 236]
7,5.37,Nc1nc(-c2cc3ccn(C[C@@H]4CCC[C@H](Nc5cn[nH]c(=O)c5C(F)(F)F)C4)c(=O)c3c(F)c2F)ncc1C(F)F [Example 239]
8,6.38,O=c1[nH]ncc(N[C@H]2CCC[C@@H](Cn3ccc4cc(-c5ncc(C6CC6)cn5)c(F)cc4c3=O)C2)c1C(F)(F)F [Example 241]
9,2.98,"Nc1nc(-c2cc3ccn(C[C@@H]4CCC[C@H](Nc5cn[nH]c(=O)c5C(F)(F)F)C4)c(=O)c3c(F)c2F)ncc1Cl [Example 243, 6-(4-amino-5-chloropyrimidin-2-yl)-7,8-difluoro-2-(((1R,3S)-3-((6-oxo-5-(trifluoromethyl)-1,6-dihydropyridazin-4-yl)amino)cyclohexyl)methyl)isoquinolin-1(2H)-one]"
10,5.19,"O=c1[nH]ncc(N[C@H]2CCC[C@@H](Cn3cnc4cc(-c5ncc(C(F)F)cn5)c(F)cc4c3=O)C2)c1C(F)(F)F [Example 244, 7-(5-(difluoromethyl)pyrimidin-2-yl)-6-fluoro-3-(((1R,3S)-3-((6-oxo-5-(trifluoromethyl)-1,6-dihydropyridazin-4-yl)amino)cyclohexyl)methyl)quinazolin-4(3H)-one]"
11,8.13,"Nc1nc(-c2cc3ccn(C[C@@H]4CCC[C@H](Nc5cn[nH]c(=O)c5C(F)(F)F)C4)c(=O)c3c(F)c2F)ncc1OC(F)F [Example 245, 6-(4-amino-5-(difluoromethoxy)pyrimidin-2-yl)-7,8-difluoro-2-(((1R,3S)-3-((6-oxo-5-(trifluoromethyl)-1,6-dihydropyridazin-4-yl)amino)cyclohexyl)methyl)isoquinolin-1(2H)-one]"
12,3.78,"O=c1[nH]ncc(N[C@H]2CCC[C@@H](Cn3ccc4cc(-c5ncc(Cl)cn5)c(F)c(F)c4c3=O)C2)c1C(F)(F)F [Example 246, 6-(5-chloropyrimidin-2-yl)-7,8-difluoro-2-(((1R,3S)-3-((6-oxo-5-(trifluoromethyl)-1,6-dihydropyridazin-4-yl)amino)cyclohexyl)methyl)isoquinolin-1(2H)-one]"
13,8.8,"O=c1[nH]ncc(N[C@H]2CCC[C@@H](Cn3cnc4cc(-c5ncc(Cl)cn5)c(F)cc4c3=O)C2)c1C(F)(F)F [Example 247, 7-(5-chloropyrimidin-2-yl)-6-fluoro-3-(((1R,3S)-3-((6-oxo-5-(trifluoromethyl)-1,6-dihydropyridazin-4-yl)amino)cyclohexyl)methyl)quinazolin-4(3H)-one]"
14,3.44,"O=c1[nH]ncc(N[C@H]2CCC[C@@H](Cn3ccc4cc(-c5ncc(Cl)cn5)c(F)cc4c3=O)C2)c1C(F)(F)F [Example 248, 6-(5-chloropyrimidin-2-yl)-7-fluoro-2-(((1R,3S)-3-((6-oxo-5-(trifluoromethyl)-1,6-dihydropyridazin-4-yl)amino)cyclohexyl)methyl)isoquinolin-1(2H)-one]"
15,32.4,"Nc1nc(-c2cc3ccn(C[C@@H]4CCC[C@H](Nc5cn[nH]c(=O)c5C(F)(F)F)C4)c(=O)c3cc2F)cnc1C(F)(F)F [Example 249, 6-(6-amino-5-(trifluoromethyl)pyrazin-2-yl)-7-fluoro-2-(((1R,3S)-3-((6-oxo-5-(trifluoromethyl)-1,6-dihydropyridazin-4-yl)amino)cyclohexyl)methyl)isoquinolin-1(2H)-one]"
16,4.71,"Nc1nc(-c2cc3ccn(C[C@@H]4CCC[C@H](Nc5cn[nH]c(=O)c5C(F)(F)F)C4)c(=O)c3cc2F)ncc1Cl [Example 250, 6-(4-amino-5-chloropyrimidin-2-yl)-7-fluoro-2-(((1R,3S)-3-((6-oxo-5-(trifluoromethyl)-1,6-dihydropyridazin-4-yl)amino)cyclohexyl)methyl)isoquinolin-1(2H)-one]"
17,47.3,"Nc1nc(-c2cc3ccn(C[C@@H]4CCC[C@H](Nc5cn[nH]c(=O)c5C(F)(F)F)C4)c(=O)c3cc2F)ccc1C(F)(F)F [Example 251, 6-(6-amino-5-(trifluoromethyl)pyridin-2-yl)-7-fluoro-2-(((1R,3S)-3-((6-oxo-5-(trifluoromethyl)-1,6-dihydropyridazin-4-yl)amino)cyclohexyl)methyl)isoquinolin-1(2H)-one]"
18,16.2,"Nc1nc(-c2cc3ccn(C[C@@H]4CCC[C@H](Nc5cn[nH]c(=O)c5C(F)(F)F)C4)c(=O)c3c(F)c2F)ccc1C(F)(F)F [Example 252, 6-(6-amino-5-(trifluoromethyl)pyridin-2-yl)-7,8-difluoro-2-(((1R,3S)-3-((6-oxo-5-(trifluoromethyl)-1,6-dihydropyridazin-4-yl)amino)cyclohexyl)methyl)isoquinolin-1(2H)-one]"
19,9.41,"O=c1[nH]ncc(N[C@H]2CCC[C@@H](Cn3ccc4cc(-c5cnc(C(F)F)cn5)c(F)c(F)c4c3=O)C2)c1C(F)(F)F [Example 253, 6-(5-(difluoromethyl)pyrazin-2-yl)-7,8-difluoro-2-(((1R,3S)-3-((6-oxo-5-(trifluoromethyl)-1,6-dihydropyridazin-4-yl)amino)cyclohexyl)methyl)isoquinolin-1(2H)-one]"
20,31.9,"Nc1nc(-c2cc3ncn(C[C@@H]4CCC[C@H](Nc5cn[nH]c(=O)c5C(F)(F)F)C4)c(=O)c3cc2F)cnc1C(F)(F)F [Example 254, 7-(6-amino-5-(trifluoromethyl)pyrazin-2-yl)-6-fluoro-3-(((1R,3S)-3-((6-oxo-5-(trifluoromethyl)-1,6-dihydropyridazin-4-yl)amino)cyclohexyl)methyl)quinazolin-4(3H)-one]"
